Reference: patent publication US12427196B2, “Macromolecular prodrugs for light-emitting diodes and uses thereof” (Children's Medical Center Corporation, priority 2020, dated 2025)

Assays:
rat footpad = experiment: Phototriggered local anesthesia (nerve block) after rat footpad injection, Touch Test neurobehavioral testing; type: in vivo; conditions: irradiance 0 W/cm^2, irradiation duration 0 min (no irradiation)
Method: The effectiveness of light-triggered anesthesia using P407-CM-T was assessed in vivo after footpad injection in the rat (Table 1);^17, 28-32 this model was selected because it was anticipated that 400 nm light would not penetrate deeply into tissue.^33
A hundred microliters of 20 wt % P407-CM-T were injected into the plantar aspect of the rat hind paw. […] Irradiation of the site of administration immediately after injection with a 400 nm LED at 200 mW/cm^2 for two minutes caused local anesthesia lasting 19.5±4.5 min (FIGS. 5A-5B). Local anesthesia was prolonged to 36.5±8.9 min (FIG. 5B) by increasing the irradiance to 300 mW/cm^2 also for 2 minutes (p<0.05 compared to 200 mW/cm^2). Extending the irradiation time to five minutes at 300 mW/cm^2 further extended local anesthesia to 66.7±24 min (p<0.05 compared to 300 mW/cm^2 for 2 min, FIG. 5B).
It would be important for a light-triggerable local anesthetic system to be triggered repeatedly, so as to be able to treat pain over an extended period. To assess the ability of P407-CM-T to provide repeated on-demand local anesthesia, animals were injected in the footpad with 0.1 mL of 20 wt % P407-CM-T (FIG. 4D). […] The animal was then irradiated at the site of injection with 400 nm light at 300 mW/cm^2 for 2 min. […]

C2C12 cells = experiment: Cytotoxicity, MTS cell proliferation assay; type: cell-based; conditions: 24 h
Method: (§1) Before testing the material in vivo, test materials were evaluated in vitro with C2C12 and PC12 cells to assess cytotoxicity to muscle and nerve cells respectively. Different compounds were directly added into the cell culture media (1 mg/mL, 0.33 mg/mL and 0.11 mg/mL) and incubated in the media bathing the cells (i.e. in direct contact with them) in conventional cell culture wells. After 24 h, cell viabilities were evaluated with the MTS assay, and their survival expressed as percentages of results in untreated cells. […] Due to the high molecular weight of the polymer-containing samples, their molar concentrations were perforce lower than that of the small molecule tetracaine. It would not be practical to culture cells in media containing the polymer concentration to be used in vivo (20 wt %), which would be very viscous. Therefore, test materials were placed in Transwell® inserts such that they were in continuity with the cell culture media.
(§2) Cytotoxicity analysis. For the “direct contact” experiments, the cells were incubated in 48-well plates with concentration of formulations of 1, 0.33, 0.11 mg/mL in the media for all samples. For the “indirect contact” experiments, the cells were incubated in 24-well plates with a transwell in each well, in which 50 μL of tetracaine (0.5% wt %) or P407 (20% wt %) or P407-CM-T (20% wt %) was applied. After 24 h, the cell viabilities were evaluated with MTS assay as percentages of the control.

PC12 cells = experiment: Cytotoxicity, MTS cell proliferation assay; type: cell-based; conditions: 24 h
Method: as §1, §2

## CCCCNc1ccc(C(=O)OCCN(C)C)cc1 [Tetracaine, tetracaine]
Rat footpad
  Duration of Block: 28.6 ± 7.1 min
C2C12 cells; C2C12, Transwell inserts, tetracaine 0.5% wt %, P407 20% wt %, P407-CM-T 20% wt %
  Cell viability (MTS): greatly reduced cell survival
C2C12 cells; C2C12, direct contact, 1, 0.33 and 0.11 mg/mL in media
  Cytotoxicity (cell survival, MTS): high cytotoxicity
PC12 cells; PC12, Transwell inserts, tetracaine 0.5% wt %, P407 20% wt %, P407-CM-T 20% wt %
  Cell viability (MTS): greatly reduced cell survival
PC12 cells; PC12, direct contact, 1, 0.33 and 0.11 mg/mL in media
  Cytotoxicity (cell survival, MTS): high cytotoxicity
